Assay results published in ChEMBL document CHEMBL3885881, “DrugMatrix”.

Organism: Rattus norvegicus
Test: DrugMatrix - Regimen: Daily Repeat
Format: toxicity, organism-based, Sprague-Dawley
Design: regimen Daily Repeat, gender Male, age 6-8 weeks
Conditions: in vivo; for ALANINE AMINOTRANSFERASE / ALKALINE PHOSPHATASE / ASPARTATE AMINOTRANSFERASE / BLOOD UREA NITROGEN / CARBON DIOXIDE / CHLORIDE / CHOLESTEROL / CREATINE PHOSPHOKINASE / CREATININE / GLUCOSE / LACTATE DEHYDROGENASE / PHOSPHORUS / POTASSIUM / TOTAL BILIRUBIN / TOTAL PROTEIN / URIC ACID / ALBUMIN / SODIUM / LIPASE: tissue Plasma
[1] = po, 0 mg/kg, 72 h, tissue Blood, route oral GAVAGE, dose level Control, time 3 day, vehicle .5 % CMC
[2] = po, 0 mg/kg, 72 h, route oral GAVAGE, dose level Control, time 3 day, vehicle .5 % CMC
[3] = po, 33 mg/kg, 72 h, tissue Blood, route oral GAVAGE, dose level High, time 3 day, vehicle .5 % CMC
[4] = po, 33 mg/kg, 72 h, route oral GAVAGE, dose level High, time 3 day, vehicle .5 % CMC
[5] = po, […], 72 h, tissue Blood, route oral GAVAGE, dose 3.3 mg/Kg, dose level Low, time 3 day, vehicle .5 % CMC
[6] = po, […], 72 h, route oral GAVAGE, dose 3.3 mg/Kg, dose level Low, time 3 day, vehicle .5 % CMC
[7] = iv, 55 mg/kg, 72 h, tissue Blood, dose level Low, time 3 day, vehicle 100 % SALINE
[8] = iv, 55 mg/kg, 72 h, dose level Low, time 3 day, vehicle 100 % SALINE
[9] = iv, 55 mg/kg, 120 h, tissue Blood, dose level Low, time 5 day, vehicle 100 % SALINE
[10] = iv, 55 mg/kg, 120 h, dose level Low, time 5 day, vehicle 100 % SALINE

AURANOFIN
ABSOLUTE BASOPHIL [1]: 0 CELLS/uL | ABSOLUTE EOSINOPHIL [1]: 8.83 CELLS/uL | ABSOLUTE LYMPHOCYTE [1]: 7222.33 CELLS/uL | ABSOLUTE MONOCYTE [1]: 0 CELLS/uL | ABSOLUTE SEGMENTED NEUTROPHIL [1]: 752.17 CELLS/uL | BASOPHIL [1]: 0% | EOSINOPHIL [1]: 0.17% | ERYTHROCYTE COUNT [1]: 5.22 x10E6/uL | HEMATOCRIT [1]: 32.6% | HEMOGLOBIN [1]: 12.43 G/DL | LEUKOCYTE COUNT [1]: 7.98 x10E3/uL | LYMPHOCYTE [1]: 91.17% | MEAN CORPUSCULAR HEMOGLOBIN [1]: 23.87 pg | MEAN CORPUSCULAR HEMOGLOBIN CONCENTRATION [1]: 38.18 G/DL | MONOCYTE [1]: 0% | NUCLEATED RED BLOOD CELLS [1]: 0 /100WBC | PLATELET COUNT [1]: 1082.33 x10E3/uL | ALANINE AMINOTRANSFERASE [2]: 42.17 u/L | ALKALINE PHOSPHATASE [2]: 451.17 u/L | ASPARTATE AMINOTRANSFERASE [2]: 76.17 u/L | BLOOD UREA NITROGEN [2]: 13.33 mg/dL | CARBON DIOXIDE [2]: 31.67 mmol/L | CHLORIDE [2]: 96.5 MEQ/L | CHOLESTEROL [2]: 78 mg/dL | CREATINE PHOSPHOKINASE [2]: 216.5 u/L | CREATININE [2]: 0.22 mg/dL | GLUCOSE [2]: 137 mg/dL | LACTATE DEHYDROGENASE [2]: 138.5 u/L | PHOSPHORUS [2]: 12.68 mg/dL | POTASSIUM [2]: 6.23 MEQ/L | TOTAL BILIRUBIN [2]: 0.15 mg/dL | TOTAL PROTEIN [2]: 6.33 G/DL | URIC ACID [2]: 1.1 mg/dL | ABSOLUTE BASOPHIL [3]: 0 CELLS/uL | ABSOLUTE EOSINOPHIL [3]: 19 CELLS/uL | ABSOLUTE LYMPHOCYTE [3]: 6925.33 CELLS/uL | ABSOLUTE MONOCYTE [3]: 0 CELLS/uL | ABSOLUTE SEGMENTED NEUTROPHIL [3]: 722.33 CELLS/uL | BASOPHIL [3]: 0% | EOSINOPHIL [3]: 0.33% | ERYTHROCYTE COUNT [3]: 5.07 x10E6/uL | HEMATOCRIT [3]: 31.53% | HEMOGLOBIN [3]: 12.07 G/DL | LEUKOCYTE COUNT [3]: 7.67 x10E3/uL | LYMPHOCYTE [3]: 90.67% | MEAN CORPUSCULAR HEMOGLOBIN [3]: 23.77 pg | MEAN CORPUSCULAR HEMOGLOBIN CONCENTRATION [3]: 38.27 G/DL | MONOCYTE [3]: 0% | NEUTROPHIL [3]: 9% | NUCLEATED RED BLOOD CELLS [3]: 0 /100WBC | PLATELET COUNT [3]: 1030 x10E3/uL | ALANINE AMINOTRANSFERASE [4]: 55.67 u/L | ALBUMIN [4]: 3.8 G/DL | ALKALINE PHOSPHATASE [4]: 342.67 u/L | ASPARTATE AMINOTRANSFERASE [4]: 80.33 u/L | BLOOD UREA NITROGEN [4]: 13.33 mg/dL | CARBON DIOXIDE [4]: 31.67 mmol/L | CHOLESTEROL [4]: 93.33 mg/dL | CREATINE PHOSPHOKINASE [4]: 251.67 u/L | CREATININE [4]: 0.18 mg/dL | GLUCOSE [4]: 139 mg/dL | LACTATE DEHYDROGENASE [4]: 122 u/L | SODIUM [4]: 153.7 MEQ/L | TOTAL BILIRUBIN [4]: 0.2 mg/dL | TOTAL PROTEIN [4]: 5.87 G/DL | URIC ACID [4]: 1.13 mg/dL | ABSOLUTE BASOPHIL [5]: 0 CELLS/uL | ABSOLUTE EOSINOPHIL [5]: 46.33 CELLS/uL | ABSOLUTE LYMPHOCYTE [5]: 6434 CELLS/uL | ABSOLUTE MONOCYTE [5]: 30 CELLS/uL | ABSOLUTE SEGMENTED NEUTROPHIL [5]: 1123 CELLS/uL | BASOPHIL [5]: 0% | EOSINOPHIL [5]: 0.67% | ERYTHROCYTE COUNT [5]: 5.02 x10E6/uL | HEMATOCRIT [5]: 31.27% | HEMOGLOBIN [5]: 11.83 G/DL | LEUKOCYTE COUNT [5]: 7.63 x10E3/uL | LYMPHOCYTE [5]: 84.33% | MEAN CORPUSCULAR HEMOGLOBIN [5]: 23.57 pg | MEAN CORPUSCULAR HEMOGLOBIN CONCENTRATION [5]: 37.83 G/DL | MONOCYTE [5]: 0.33% | NEUTROPHIL [5]: 14.67% | NUCLEATED RED BLOOD CELLS [5]: 0.33 /100WBC | PLATELET COUNT [5]: 1052.33 x10E3/uL | ALANINE AMINOTRANSFERASE [6]: 42.33 u/L | ALBUMIN [6]: 4.1 G/DL | ALKALINE PHOSPHATASE [6]: 371 u/L | ASPARTATE AMINOTRANSFERASE [6]: 73 u/L | BLOOD UREA NITROGEN [6]: 13 mg/dL | CARBON DIOXIDE [6]: 33 mmol/L | CHLORIDE [6]: 97 MEQ/L | CHOLESTEROL [6]: 76.67 mg/dL | CREATINE PHOSPHOKINASE [6]: 140 u/L | CREATININE [6]: 0.18 mg/dL | GLUCOSE [6]: 143 mg/dL | LACTATE DEHYDROGENASE [6]: 96 u/L | LIPASE [6]: 8.33 u/L | POTASSIUM [6]: 6.12 MEQ/L | SODIUM [6]: 145.6 MEQ/L | TOTAL BILIRUBIN [6]: 0.17 mg/dL | TOTAL PROTEIN [6]: 6.17 G/DL | URIC ACID [6]: 1 mg/dL

GADOPENTETATE DIMEGLUMINE
ABSOLUTE BASOPHIL [7]: 0 CELLS/uL | ABSOLUTE EOSINOPHIL [7]: 43.67 CELLS/uL | ABSOLUTE LYMPHOCYTE [7]: 9839.33 CELLS/uL | ABSOLUTE MONOCYTE [7]: 219.67 CELLS/uL | ABSOLUTE SEGMENTED NEUTROPHIL [7]: 564 CELLS/uL | BASOPHIL [7]: 0% | EOSINOPHIL [7]: 0.33% | ERYTHROCYTE COUNT [7]: 5.53 x10E6/uL | HEMOGLOBIN [7]: 13.6 G/DL | LEUKOCYTE COUNT [7]: 10.67 x10E3/uL | LYMPHOCYTE [7]: 92.67% | MEAN CORPUSCULAR HEMOGLOBIN [7]: 24.63 pg | MEAN CORPUSCULAR HEMOGLOBIN CONCENTRATION [7]: 37.3 G/DL | MEAN CORPUSCULAR VOLUME [7]: 66.07 fL | MONOCYTE [7]: 2% | NEUTROPHIL [7]: 5% | NUCLEATED RED BLOOD CELLS [7]: 0 /100WBC | PLATELET COUNT [7]: 1301 x10E3/uL | ALANINE AMINOTRANSFERASE [8]: 40 u/L | ALKALINE PHOSPHATASE [8]: 398.33 u/L | ASPARTATE AMINOTRANSFERASE [8]: 87.67 u/L | CARBON DIOXIDE [8]: 23.33 mmol/L | CHOLESTEROL [8]: 81.33 mg/dL | CREATINE PHOSPHOKINASE [8]: 415.67 u/L | CREATININE [8]: 0.21 mg/dL | LACTATE DEHYDROGENASE [8]: 589.67 u/L | POTASSIUM [8]: 6.91 MEQ/L | SODIUM [8]: 145.83 MEQ/L | TOTAL BILIRUBIN [8]: 0.2 mg/dL | TOTAL PROTEIN [8]: 6.1 G/DL | ABSOLUTE BASOPHIL [9]: 0 CELLS/uL | ABSOLUTE EOSINOPHIL [9]: 278.33 CELLS/uL | ABSOLUTE LYMPHOCYTE [9]: 15424.33 CELLS/uL | ABSOLUTE MONOCYTE [9]: 421.67 CELLS/uL | ABSOLUTE SEGMENTED NEUTROPHIL [9]: 1375.67 CELLS/uL | BASOPHIL [9]: 0% | ERYTHROCYTE COUNT [9]: 5.85 x10E6/uL | HEMATOCRIT [9]: 36.97% | HEMOGLOBIN [9]: 14.03 G/DL | LEUKOCYTE COUNT [9]: 17.5 x10E3/uL | LYMPHOCYTE [9]: 88% | MEAN CORPUSCULAR HEMOGLOBIN [9]: 24.07 pg | MEAN CORPUSCULAR HEMOGLOBIN CONCENTRATION [9]: 37.97 G/DL | NEUTROPHIL [9]: 8% | NUCLEATED RED BLOOD CELLS [9]: 0 /100WBC | PLATELET COUNT [9]: 1344.67 x10E3/uL | ALANINE AMINOTRANSFERASE [10]: 53.33 u/L | ALBUMIN [10]: 4.2 G/DL | ALKALINE PHOSPHATASE [10]: 358.67 u/L | ASPARTATE AMINOTRANSFERASE [10]: 83 u/L | BLOOD UREA NITROGEN [10]: 16.67 mg/dL | CARBON DIOXIDE [10]: 26.33 mmol/L | CHLORIDE [10]: 106.67 MEQ/L | CHOLESTEROL [10]: 68 mg/dL | CREATINE PHOSPHOKINASE [10]: 219.67 u/L | CREATININE [10]: 0.19 mg/dL | GLUCOSE [10]: 172 mg/dL | LACTATE DEHYDROGENASE [10]: 98 u/L | LIPASE [10]: 10 u/L | PHOSPHORUS [10]: 12.93 mg/dL | POTASSIUM [10]: 6.64 MEQ/L | SODIUM [10]: 146.2 MEQ/L | TOTAL BILIRUBIN [10]: 0.2 mg/dL | TOTAL PROTEIN [10]: 6.13 G/DL | URIC ACID [10]: 2.37 mg/dL
